Literature values, collected in patent publication US12458653B2, “Cannabis based therapeutic and method of use” (priority 2018, dated 2025).
Read-outs that look alike come from different tables or passages of the source.

Experiments:
[1] = system: chemotherapy-induced nausea and vomiting; details: versus available anti-emetic regimens
[2] = extensive liver metabolism

CCCCCc1cc(O)c2c(c1)OC(C)(C)[C@@H]1CCC(C(=O)O)=C[C@@H]21 [THC—COOH]
peak concentration in the urine (after 4 hours, smoking approximately 27 mg of Δ9-THC): 179.4 ng/mL
urinary excretion half-life (after seven days of monitoring): approximately 30 hours
time THC-COOH is detectable in plasma (after smoking a cigarette containing 16-34 mg of Δ9-THC): 2 to 7 days
urinary excretion half-life (after twelve days of monitoring): 44 to 60 h
initial concentration of THC-COOH in serum (clinical study among 52 volunteers): 14 to 49 ng/mL
THC-COOH detection time (single chronic user): 25 days

CCCCCc1cc(O)c2c(c1)OC(C)(C)[C@@H]1CCC(CO)=C[C@@H]21 [11-OH-THC]
peak concentration in the urine (after 3 hours, smoking approximately 27 mg of Δ9-THC): 77.0 ± 329.7 ng/mL
peak concentration in the urine (within two hours after smoking approximately 27 mg of Δ9-THC in a cigarette): 3.2 to 53.3 ng/mL

CCCCCc1cc(O)c2c(c1)OC(C)(C)[C@@H]1CCC(C)=C[C@@H]21 [Dronabinol]
relief of chemotherapy-induced nausea and vomiting [1]: little relief over available anti-emetic regimens

CCCCCc1cc(O)c2c(c1)OC(C)(C)[C@@H]1CCC(C)=C[C@@H]21 [Δ9-THC, delta-9 tetrahydrocannabinol]
oral bioavailability of Δ9-THC [2]: 4-12%
half-life (frequent users): 120 to 312 h
half-life (infrequent user): 31.2 h
average plasma clearance rate (men): 14.9 ± 3.7 L/h
plasma clearance rate (naïve cannabis users): approximately 36 L/hour
plasma clearance rate (regular cannabis users): 60 L/h
average plasma clearance rate (women): 11.8 ± 3 L/h
